One test concerns the target α4β7 integrin (Homo sapiens (Human), UniProt P13612+P26010). Kind of test: Integrin Adhesion Assay: Protocol 1 (MAdCAM-coated plate, RPMI-8866 cells, CellTiter GLO readout). The class given is cell-based. As to conditions: integrin adhesion assay; determined by at least one of the assays described (protocol not specified). The gist of the method:
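RPMI-8866 cells (2×10^6 per mL) added with compounds (1% DMSO) to MAdCAM-coated wells blocked in HEPES/NaCl buffer with 1 mM MnCl2, 0.1 mM CaCl2, 1% BSA; 1 h at 37° C, 5% CO2. After four washes, bound cells read by CellTiter GLO luminescence; % inhibition vs DMSO and control wells, 4-parameter fit.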
(In general: ATP-based viability assays read luminescence as a measure of living cells.)

Another test concerns the target α4β1 integrin (Homo sapiens (Human), UniProt P05556+P13612). As to the kind of experiment: Integrin Adhesion Assay: Protocol 2 (VCAM-coated plate, Jurkat cells, CellTiter GLO readout). In kind it is cell-based. As to conditions: determined by at least one of the assays described (protocol not specified). The protocol: α4β7 and α4β1 inhibition was evaluated in vitro using at least one of the following procedures:
Integrin Adhesion Assay: Protocol 2
VCAM (R&D Systems, 0.1 ug) was diluted in 50 μL PBS, added to each well of an opaque ELISA plate (Thermo), and incubated overnight at 4° C. Coated plates were washed once with PBS and then blocked with 200 μL of assay buffer (10 mM HEPES, 150 mM NaCl, 1 mM MnCl2, 0.1 mM CaCl2), 1% BSA) for 1 hour at 37° C. and 5% CO2. After incubation, buffer was aspirated from the plates and 50 μL of fresh assay buffer was added. Compounds were added by compounds dispenser (Tecan) and DMSO concentration was normalized to 1% across each plate. 50 μL of Jurkat cells (2×10^6 per mL) were added to each well and the plates were incubated for 1 hour at 37° C. and 5% CO2. After incubation, plates were allowed to cool to RT for 10 minutes before being washed four times in assay buffer by an automated plate washer (BioTek). After washing, 100 μL of a 1:1 mixture of assay buffer and CellTiter GLO 2.0 reagent (Promega) were added to each well. Plates were mixed for 2 minutes at 1000 rpm and then allowed to incubate an additional 10 minutes before reading out luminescence on a Tecan Spark plate reader. Raw data was converted to percent inhibition based on DMSO only and control compound wells, and curves were analyzed by 4-parameter fit within Dotmatics software.

For orientation: IC50 means the midpoint of a concentration-inhibition curve. Read a low IC50 as higher potency.

α4β7 integrin, sequence (P13612 34-1032): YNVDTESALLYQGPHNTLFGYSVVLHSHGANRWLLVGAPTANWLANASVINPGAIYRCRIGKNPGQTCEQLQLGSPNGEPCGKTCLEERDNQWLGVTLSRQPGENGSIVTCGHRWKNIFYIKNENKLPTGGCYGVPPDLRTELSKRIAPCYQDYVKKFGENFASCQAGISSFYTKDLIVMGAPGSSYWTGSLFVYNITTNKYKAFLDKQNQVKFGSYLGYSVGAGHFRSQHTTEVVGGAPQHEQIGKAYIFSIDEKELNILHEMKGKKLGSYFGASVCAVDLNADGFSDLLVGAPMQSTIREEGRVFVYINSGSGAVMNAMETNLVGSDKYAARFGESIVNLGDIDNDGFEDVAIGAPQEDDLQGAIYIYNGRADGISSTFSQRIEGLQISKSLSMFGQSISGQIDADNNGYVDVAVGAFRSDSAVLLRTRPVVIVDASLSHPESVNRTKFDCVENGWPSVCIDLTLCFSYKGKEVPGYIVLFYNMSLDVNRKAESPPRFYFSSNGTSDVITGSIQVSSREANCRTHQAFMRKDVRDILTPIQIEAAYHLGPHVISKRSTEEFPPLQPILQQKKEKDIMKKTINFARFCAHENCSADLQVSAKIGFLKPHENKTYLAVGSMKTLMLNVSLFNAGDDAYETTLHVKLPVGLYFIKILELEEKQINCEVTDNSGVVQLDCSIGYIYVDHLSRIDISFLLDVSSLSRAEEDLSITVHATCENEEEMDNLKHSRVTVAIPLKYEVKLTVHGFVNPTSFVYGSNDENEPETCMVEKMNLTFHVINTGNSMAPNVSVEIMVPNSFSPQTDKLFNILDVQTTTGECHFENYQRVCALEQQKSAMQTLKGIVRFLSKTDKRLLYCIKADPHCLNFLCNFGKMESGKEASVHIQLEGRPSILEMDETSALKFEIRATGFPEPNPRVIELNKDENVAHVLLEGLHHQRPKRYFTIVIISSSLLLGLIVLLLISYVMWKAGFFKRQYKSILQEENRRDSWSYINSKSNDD
α4β7 integrin, sequence (P26010 20-798): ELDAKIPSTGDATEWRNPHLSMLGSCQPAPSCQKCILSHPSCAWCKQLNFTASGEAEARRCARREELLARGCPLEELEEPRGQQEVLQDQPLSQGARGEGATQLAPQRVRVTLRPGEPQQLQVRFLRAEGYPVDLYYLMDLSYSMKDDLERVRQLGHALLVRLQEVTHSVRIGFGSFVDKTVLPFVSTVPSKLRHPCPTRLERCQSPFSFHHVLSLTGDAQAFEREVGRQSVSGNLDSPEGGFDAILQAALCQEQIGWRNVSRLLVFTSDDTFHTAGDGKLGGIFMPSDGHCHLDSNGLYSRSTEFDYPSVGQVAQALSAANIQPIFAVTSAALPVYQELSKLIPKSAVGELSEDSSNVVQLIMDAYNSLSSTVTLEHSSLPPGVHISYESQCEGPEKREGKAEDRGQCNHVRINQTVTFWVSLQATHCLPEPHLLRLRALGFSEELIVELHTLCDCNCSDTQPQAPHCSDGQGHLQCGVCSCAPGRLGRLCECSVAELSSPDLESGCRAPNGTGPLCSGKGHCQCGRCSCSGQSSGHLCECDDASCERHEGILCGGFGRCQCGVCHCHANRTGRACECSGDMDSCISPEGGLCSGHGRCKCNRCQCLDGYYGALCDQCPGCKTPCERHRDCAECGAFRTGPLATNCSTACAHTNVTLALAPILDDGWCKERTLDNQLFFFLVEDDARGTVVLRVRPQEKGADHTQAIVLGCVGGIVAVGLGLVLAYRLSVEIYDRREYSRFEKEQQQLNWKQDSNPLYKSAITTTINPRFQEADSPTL
α4β1 integrin, sequence (P13612 34-1032): as the sequence (P13612 34-1032) above
α4β1 integrin, sequence (P05556 21-798): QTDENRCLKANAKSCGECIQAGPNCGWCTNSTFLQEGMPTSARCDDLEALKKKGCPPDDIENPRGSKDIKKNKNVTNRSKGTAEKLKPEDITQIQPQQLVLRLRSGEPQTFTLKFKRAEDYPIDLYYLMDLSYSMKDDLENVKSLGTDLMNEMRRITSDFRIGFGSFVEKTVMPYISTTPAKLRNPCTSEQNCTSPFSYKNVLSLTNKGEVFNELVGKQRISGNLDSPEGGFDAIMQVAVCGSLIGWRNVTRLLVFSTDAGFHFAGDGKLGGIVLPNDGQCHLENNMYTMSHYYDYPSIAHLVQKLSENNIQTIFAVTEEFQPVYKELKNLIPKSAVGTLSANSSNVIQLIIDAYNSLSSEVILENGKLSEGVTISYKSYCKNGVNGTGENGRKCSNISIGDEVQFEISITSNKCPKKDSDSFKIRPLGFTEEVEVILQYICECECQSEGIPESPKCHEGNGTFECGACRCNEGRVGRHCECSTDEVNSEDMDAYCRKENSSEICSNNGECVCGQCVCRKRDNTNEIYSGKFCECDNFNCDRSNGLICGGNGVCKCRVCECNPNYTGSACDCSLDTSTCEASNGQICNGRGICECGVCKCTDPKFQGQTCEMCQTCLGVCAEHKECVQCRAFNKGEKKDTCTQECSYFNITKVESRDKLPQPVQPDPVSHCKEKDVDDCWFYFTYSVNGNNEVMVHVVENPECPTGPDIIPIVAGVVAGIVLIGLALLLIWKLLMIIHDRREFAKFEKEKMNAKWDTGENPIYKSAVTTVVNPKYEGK

As to `Cn1ccc(=O)n(-c2cccc3c(C[C@H](NC(=O)c4c(F)cc5c(cnn5CC(F)(F)F)c4F)C(=O)O)cccc23)c1=O` [Compound 126], the IC50 was less than 0.01 µM against α4β7 integrin and 0.1 to 1 µM against α4β1 integrin.

For `Cn1ccc(=O)n(-c2cccc3c(C[C@H](NC(=O)c4c(F)cc5c(c4F)CS(=O)(=O)N5)C(=O)O)cccc23)c1=O` [Compound 43], the figures for the IC50 on α4β7 integrin and on α4β1 integrin were less than 0.01 µM and 0.1 to 1 µM, respectively.

On to `Cn1ccc(=O)n(-c2cccc3c(C[C@H](NC(=O)C4(C#N)CCN(CC(F)(F)F)CC4)C(=O)O)cccc23)c1=O` [Compound 163], for which the IC50 is 0.01 to 0.1 µM at α4β7 integrin and greater than 1 µM against α4β1 integrin.

On to `Cn1ccc(=O)n(-c2cccc3c(C[C@H](NC(=O)c4c(F)cc(NS(=O)(=O)c5ccccc5)cc4F)C(=O)O)cccc23)c1=O` [Compound 9], for which the IC50 on α4β7 integrin was less than 0.01 µM; at α4β1 integrin it was greater than 1 µM.

Take `Cn1ccc(C(F)(F)F)c(-c2nccc3c(C[C@H](NC(=O)c4c(F)cc(N5CCOC[C@@H]5C(F)(F)F)cc4F)C(=O)O)cccc23)c1=O` [Compound 214]: the values for the IC50 on α4β7 integrin and against α4β1 integrin were less than 0.01 µM and greater than 1 µM, respectively.

Regarding `Cn1ccc(=O)n(-c2cccc3c(C[C@H](NC(=O)c4c(F)ccc(OC(F)F)c4F)C(=O)O)cccc23)c1=O` [Compound 31], the concentration for half-maximal inhibition (IC50) at α4β7 integrin fell in the range of 0.01 to 0.1 µM; at α4β1 integrin, 0.1 to 1 µM.

In the case of `Cn1ccc(=O)n(-c2cccc3c(C[C@H](NC(=O)c4c(F)cc(C#N)cc4F)C(=O)O)cccc23)c1=O` [Compound 131], the IC50 was in the range of 0.01 to 0.1 µM at α4β7 integrin and 0.1 to 1 µM on α4β1 integrin.

As for `Cn1ccc(=O)n(-c2cccc3c(C[C@H](NC(=O)C4(F)CCN(CC(F)(F)F)CC4)C(=O)O)cccc23)c1=O` [Compound 164], the IC50 against α4β7 integrin and against α4β1 integrin was greater than 1 µM each time.

As for `Cn1ccc(C(F)(F)F)c(-c2nccc3c(C[C@H](NC(=O)c4c(F)cc(N5CCOC[C@@H]5C(F)(F)F)cc4CN4CCCC4)C(=O)O)cccc23)c1=O` [Compound 253], the values for the IC50 at α4β7 integrin and against α4β1 integrin were less than 0.01 µM and greater than 1 µM, respectively.

Take `Cn1ccc(=O)n(-c2cccc3c(C[C@H](NC(=O)c4c(F)cc(CN5CCC5)cc4F)C(=O)O)cccc23)c1=O` [Compound 33]: the IC50 against α4β7 integrin and on α4β1 integrin was greater than 1 µM throughout.

For the compound `Cn1ccc(C(F)(F)F)c(-c2nccc3c(C[C@H](NC(=O)c4c(F)cccc4F)C(=O)O)cccc23)c1=O` [Compound 210], the IC50 is less than 0.01 µM on α4β7 integrin and greater than 1 µM against α4β1 integrin.

On to `Cn1ccc(=O)n(-c2cccc3c(C[C@H](NC(=O)c4cc5ncn(CC(F)(F)F)c5cc4F)C(=O)O)cccc23)c1=O` [Compound 124], for which the IC50 against α4β7 integrin was 0.01 to 0.1 µM; on α4β1 integrin, greater than 1 µM.

With `Cn1ccc(=O)n(-c2cccc3c(C[C@H](NC(=O)c4cc(C(=O)N5CCc6ccccc6C5)n(-c5ccccc5)n4)C(=O)O)cccc23)c1=O` [Compound 44], the IC50 on α4β7 integrin and on α4β1 integrin was greater than 1 µM throughout.

Take `Cn1ccc(=O)n(-c2cccc3c(C[C@H](NC(=O)C(C)(C)c4ccc(Oc5ccccc5)cc4)C(=O)O)cccc23)c1=O` [Compound 178]: the IC50 on α4β7 integrin and against α4β1 integrin was greater than 1 µM in each case.

As to `Cn1ccc(=O)n(-c2cccc3c(C[C@H](NC(=O)[C@@]4(C)CCCN(CC(F)(F)F)CC4)C(=O)O)cccc23)c1=O` [Compound 157], the IC50 on α4β7 integrin was 0.01 to 0.1 µM; against α4β1 integrin, greater than 1 µM.

In the case of `CN(C)CCc1cc(=O)n(-c2cccc3c(C[C@H](NC(=O)c4c(F)cccc4F)C(=O)O)cccc23)c(=O)n1C` [Compound 116], the results for the IC50 at α4β7 integrin and against α4β1 integrin were 0.01 to 0.1 µM and greater than 1 µM, respectively.

With `Cn1ccc(C(F)(F)F)c(-c2nccc3c(C[C@H](NC(=O)c4c(F)cc(NCC(F)(F)F)cc4CN4CCCC4)C(=O)O)cccc23)c1=O` [Compound 254], the results for the IC50 at α4β7 integrin and at α4β1 integrin were less than 0.01 µM and greater than 1 µM, respectively.

Consider `Cn1c(=O)c2ccccc2n(-c2cccc3c(C[C@H](NC(=O)c4c(F)cccc4F)C(=O)O)cccc23)c1=O` [Compound 3], for which the IC50 at α4β7 integrin is 0.01 to 0.1 µM; against α4β1 integrin, greater than 1 µM.

For the compound `O=C(N[C@@H](Cc1cccc2c(-c3cccc4ccncc34)cccc12)C(=O)O)c1c(F)cc(N(CC(F)(F)F)CC(F)(F)F)cc1CN1CCCC1` [Compound 151], the IC50 against α4β7 integrin is less than 0.01 µM; against α4β1 integrin, greater than 1 µM.

For the compound `Cn1ccc(=O)n(-c2cccc3c(C[C@H](NC(=O)c4c(F)cc5cn(CC(F)(F)F)nc5c4F)C(=O)O)cccc23)c1=O` [Compound 144], the IC50 against α4β7 integrin lay in the range of 0.01 to 0.1 µM; on α4β1 integrin, 0.1 to 1 µM.

In the case of `Cn1ccc(C(F)(F)F)c(-c2cccc3c(C[C@H](NC(=O)c4c(F)cc(N5CCOC[C@@H]5C(F)(F)F)cc4F)C(=O)O)cccc23)c1=O` [Compound 142], the IC50 was 0.01 to 0.1 µM against α4β7 integrin and greater than 1 µM against α4β1 integrin.

For the compound `Cn1ccc(=O)n(-c2cccc3c(C[C@H](NC(=O)c4c(F)cncc4Cl)C(=O)O)cccc23)c1=O` [Compound 110], the IC50 lay in the range of 0.01 to 0.1 µM on α4β7 integrin and 0.1 to 1 µM against α4β1 integrin.

For `CCN1CCC(C(=O)N[C@@H](Cc2cccc3c(-n4c(=O)ccn(C)c4=O)cccc23)C(=O)O)CC1` [Compound 36], the IC50 at α4β7 integrin and at α4β1 integrin was greater than 1 µM each time.

In the case of `Cn1ccc(=O)n(-c2cccc3c(C[C@H](NC(=O)C(C)(C)CSc4cccc(C(F)(F)F)c4)C(=O)O)cccc23)c1=O` [Compound 177], the IC50 at α4β7 integrin and at α4β1 integrin was greater than 1 µM each time.

As for `Cn1ccc(=O)n(-c2cccc3c(C[C@H](NC(=O)c4c(F)cc5nn(CC(F)(F)F)cc5c4F)C(=O)O)cccc23)c1=O` [Compound 15], the IC50 against α4β7 integrin is less than 0.01 µM; at α4β1 integrin it was 0.1 to 1 µM.

As to `O=C(N[C@@H](Cc1cccc2c(-c3nccc4ccncc34)cccc12)C(=O)O)c1c(F)cc(N2CCOC[C@@H]2C(F)(F)F)cc1F` [Compound 23], the IC50 against α4β7 integrin is less than 0.01 µM; against α4β1 integrin, greater than 1 µM.

For `Cn1ccc(=O)n(-c2cccc3c(C[C@H](NC(=O)[C@@]4(C)CCCN(CC(F)(F)F)CC4)C(=O)O)cccc23)c1=O` [Compound 158], the IC50 against α4β7 integrin is 0.1 to 1 µM; against α4β1 integrin, greater than 1 µM.

In the case of `O=C(N[C@@H](Cc1cccc2c(-c3cccc4ccncc34)nccc12)C(=O)O)c1c(F)cc(N(CC(F)(F)F)CC(F)(F)F)cc1CN1CCCC1` [Compound 222], the figures for the IC50 on α4β7 integrin and against α4β1 integrin were less than 0.01 µM and greater than 1 µM, respectively.

On to `Cn1ccc(=O)n(-c2cccc3c(C[C@H](NC(=O)C(C)(C)c4cccc(-c5ccccc5)c4)C(=O)O)cccc23)c1=O` [Compound 176], for which the IC50 on α4β7 integrin is 0.1 to 1 µM; at α4β1 integrin it was greater than 1 µM.

Take `Cn1ccc(=O)n(-c2cccc3c(C[C@H](NC(=O)c4c(F)cc(N5CCOC[C@@H]5C(F)(F)F)cc4F)C(=O)O)cccc23)c1=O` [Compound 108]: the IC50 on α4β7 integrin was less than 0.01 µM; on α4β1 integrin, 0.1 to 1 µM.

As to `Cn1ccc(=O)n(-c2cccc3c(C[C@H](NCc4c(F)cccc4F)C(=O)O)cccc23)c1=O` [Compound 68], the IC50 against α4β7 integrin and against α4β1 integrin was greater than 1 µM in each case.

As to `Cn1ccc(=O)n(-c2cccc3c(C[C@H](NC(=O)c4c(F)cc(NCC(F)(F)F)cc4F)C(=O)O)cccc23)c1=O` [Compound 114], the half-maximal inhibitory concentration (IC50) was less than 0.01 µM against α4β7 integrin and greater than 1 µM against α4β1 integrin.

Take `Cn1cc(CCN2CC(F)C2)c(=O)n(-c2cccc3c(C[C@H](NC(=O)c4c(F)cccc4F)C(=O)O)cccc23)c1=O` [Compound 118]: the IC50 against α4β7 integrin is 0.01 to 0.1 µM; on α4β1 integrin, greater than 1 µM.

Source of the values: patent US20250313535A1, “ALPHA 4 BETA 7 INTEGRIN MODULATORS AND USES THEREOF” (DICE MOLECULES SV, INC., priority 2022, published 2025).
